Results on 31 compounds are retold here after US20090036422A1 (priority 2007, published 2009).

The structures appear in SMILES notation. Where a name gives a salt, the structure may show the parent alone.

A word on the Kb: it is the equilibrium dissociation constant of an antagonist, usually derived from a functional assay. Higher therefore signals a less potent antagonist.

The target of this assay is T1, human orexin-2 (hOX2) receptor (Homo sapiens, UniProt O43614).
T1 construct: expressed in transfected cells
T1 sequence (O43614 1-444): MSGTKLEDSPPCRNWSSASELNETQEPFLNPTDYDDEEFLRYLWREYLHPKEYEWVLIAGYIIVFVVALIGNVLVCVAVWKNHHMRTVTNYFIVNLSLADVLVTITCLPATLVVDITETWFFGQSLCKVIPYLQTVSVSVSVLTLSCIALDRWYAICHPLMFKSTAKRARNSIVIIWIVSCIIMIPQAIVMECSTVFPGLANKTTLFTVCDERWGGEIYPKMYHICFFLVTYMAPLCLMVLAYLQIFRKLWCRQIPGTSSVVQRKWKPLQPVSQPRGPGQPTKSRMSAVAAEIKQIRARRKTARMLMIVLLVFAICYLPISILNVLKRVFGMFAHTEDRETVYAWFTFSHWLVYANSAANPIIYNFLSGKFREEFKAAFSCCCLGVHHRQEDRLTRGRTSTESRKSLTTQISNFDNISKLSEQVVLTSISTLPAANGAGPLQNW
In words: Intracellular Ca2+ mobilization assay (FLIPR), CHO(dHFr-) cells expressing hOX2, orexin-A at EC80 as agonist. The class given is cell-based. Particulars: Kb=IC50/(1+[A]/EC50); CHO(dHFr-)-OX2R cells, antagonist applied 25 min before orexin-A EC80. A digest of the protocol:
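Fluo-4-loaded CHO(dHFr−) cells stably expressing hOX2 were preincubated 25 min at 37 °C with antagonist (11 concentrations, 0.0001–10 μM), then challenged with orexin-A at its daily-determined EC80. Peak fluorescence over basal read by FLIPR; IC50 from Hill fit, Kb via Kb=IC50/(1+[A]/EC50).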
On the technique in general: A change in cytosolic calcium serves as a functional read-out for many receptors and channels.
In turn, `Cc1cccc(N(CCc2ccc(C(F)(F)F)cc2)C(=O)C(N)c2ccccc2)c1` (stereo not shown) [Example 70, 2-Amino-2-phenyl-N-m-tolyl-N-[2-(4-trifluoromethyl-phenyl)-ethyl]-acetamide] gave a Kb of 0.0579 µM.
On to `Cc1ccc(N(CCc2ccccc2F)C(=O)[C@@H](N)c2ccccc2)cc1C` [Example 180, (S)-2-Amino-N-(3,4-dimethyl-phenyl)-N-[2-(2-fluoro-phenyl)-ethyl]-2-phenyl-acetamide hydrochloride], for which the Kb amounted to 0.036 µM.
`Cc1ccc(N(CCc2ccc(Cl)c(F)c2)C(=O)[C@@H](N)c2ccccc2)cc1C` [Example 200, (S)-2-Amino-N-[2-(4-chloro-3-fluoro-phenyl)-ethyl]-N-(3,4-dimethyl-phenyl)-2-phenyl-acetamide hydrochloride] came in with a Kb of 0.0143 µM.
The same measure for `Cc1ccc(N(CCc2cccc(Cl)c2)C(=O)[C@@H](N)c2ccccc2)cc1C` [Example 183, (S)-2-Amino-N-[2-(3-chloro-phenyl)-ethyl]-N-(3,4-dimethyl-phenyl)-2-phenyl-acetamide hydrochloride]: 0.0496 µM; for `Cc1ccc(N(CCc2cccc(C(F)(F)F)c2F)C(=O)[C@@H](N)c2ccccc2)cc1C` [Example 195, (S)-2-Amino-N-(3,4-dimethyl-phenyl)-N-[2-(2-fluoro-3-trifluoromethyl-phenyl)-ethyl]-2-phenyl-acetamide hydrochloride]: 0.0176 µM.
The same measure for `Cc1ccc(N(CCc2ccc(C(F)(F)F)c(F)c2F)C(=O)[C@@H](N)c2ccccc2)cc1C` [Example 197, (S)-2-Amino-N-[2-(2,3-difluoro-4-trifluoromethyl-phenyl)-ethyl]-N-(3,4-dimethyl-phenyl)-2-phenyl-acetamide hydrochloride]: 0.0067 µM; for `CCOc1ccc(N(CCc2ccc(C(F)(F)F)cc2)C(=O)C(N)c2ccccc2)cc1OCC` (stereo not shown) [Example 68, 2-Amino-N-(3,4-diethoxy-phenyl)-2-phenyl-N-[2-(4-trifluoromethyl-phenyl)-ethyl]-acetamide]: 0.0117 µM; for `N[C@H](C(=O)N(CCc1ccc(C(F)(F)F)cc1)c1ccc2c(c1)CCCC2)c1ccccc1` [Example 150, (S)-2-Amino-2-phenyl-N-(5,6,7,8-tetrahydro-naphthalen-2-yl)-N-[2-(4-trifluoromethyl-phenyl)-ethyl]-acetamide]: 0.0682 µM.
The result for `CN[C@H](C(=O)N(CCc1ccc(C(F)(F)F)cc1)c1ccc(OC)c(OC)c1)c1ccccc1OC` [Example 101, (S)—N-(3,4-Dimethoxy-phenyl)-2-(2-methoxy-phenyl)-2-methylamino-N-[2-(4-trifluoromethyl-phenyl)-ethyl]-acetamide hydrochloride] reads 0.0133 µM; that for `Cc1ccc(N(CCc2ccc(C(F)(F)F)c(F)c2)C(=O)[C@@H](N)c2ccccc2)cc1C` [Example 186, (S)-2-Amino-N-(3,4-dimethyl-phenyl)-N-[2-(3-fluoro-4-trifluoromethyl-phenyl)-ethyl]-2-phenyl-acetamide hydrochloride], 0.0156 µM.
`CCC(O)CNC(C(=O)N(CCc1ccc(C)cc1)c1ccc(C)c(C)c1)c1ccccc1` (stereo not shown) [Example 131, N-(3,4-Dimethyl-phenyl)-2-(2-hydroxy-butylamino)-2-phenyl-N-(2-p-tolyl-ethyl)-acetamide] registered a Kb of 0.022 µM.
The result for `COc1ccc(N(CCc2ccc(C(F)(F)F)cc2)C(=O)C(O)c2ccccc2OC)cc1OC` (stereo not shown) [Example 17, N-(3,4-dimethoxyphenyl)-2-hydroxy-2-(2-methoxyphenyl)-N-{2-[4-(trifluoromethyl)phenyl]ethyl}acetamide] reads 0.0165 µM.
The result for `Cc1ccc(N(CCc2c(F)cc(C(F)(F)F)c(F)c2F)C(=O)[C@@H](N)c2ccccc2)cc1C` [Example 202, (S)-2-Amino-N-(3,4-dimethyl-phenyl)-2-phenyl-N-[2-(2,3,6-trifluoro-4-trifluoromethyl-phenyl)-ethyl]-acetamide hydrochloride] reads 0.0015 µM; that for `Cc1cc(N(CCc2ccc(C(F)(F)F)cc2)C(=O)C(N)c2ccccc2)ccc1F` (stereo not shown) [Example 83, 2-Amino-N-(4-fluoro-3-methyl-phenyl)-2-phenyl-N-[2-(4-trifluoromethyl-phenyl)-ethyl]-acetamide], 0.0698 µM; that for `Cc1ccc(N(CCc2ccc(C)c(F)c2)C(=O)[C@@H](N)c2ccccc2)cc1C` [Example 190, (S)-2-Amino-N-(3,4-dimethyl-phenyl)-N-[2-(3-fluoro-4-methyl-phenyl)-ethyl]-2-phenyl-acetamide hydrochloride], 0.0091 µM.
The result for `Cc1ccc(N(CCc2ccc(C#N)cc2)C(=O)[C@@H](N)c2ccccc2)cc1C` [Example 212, (S)-2-Amino-N-[2-(4-cyano-phenyl)-ethyl]-N-(3,4-dimethyl-phenyl)-2-phenyl-acetamide hydrochloride] reads 0.0343 µM; that for `Cc1ccc(N(CCc2ccc(C(F)(F)F)cc2)C(=O)[C@@H](O)c2ccc(F)cc2)cc1C` [Example 161, (S)—N-(3,4-Dimethyl-phenyl)-2-(4-fluoro-phenyl)-2-hydroxy-N-[2-(4-trifluoromethyl-phenyl)-ethyl]-acetamide], 0.0908 µM; that for `COc1cc(N(CCc2ccc(C(F)(F)F)cc2)C(=O)C(N)c2ccccc2)ccc1Cl` (stereo not shown) [Example 65, 2-Amino-N-(4-chloro-3-methoxy-phenyl)-2-phenyl-N-[2-(4-trifluoromethyl-phenyl)-ethyl]-acetamide], 0.0285 µM.
In turn, `Cc1ccc(N(CCc2cc(F)cc(F)c2)C(=O)[C@@H](N)c2ccccc2)cc1C` [Example 208, (S)-2-Amino-N-[2-(3,5-difluoro-phenyl)-ethyl]-N-(3,4-dimethyl-phenyl)-2-phenyl-acetamide hydrochloride] had a Kb of 0.0231 µM.
`Cc1ccc(N(CCc2ccc(C(F)(F)F)cc2F)C(=O)[C@@H](N)c2ccccc2)cc1C` [Example 196, (S)-2-Amino-N-(3,4-dimethyl-phenyl)-N-[2-(2-fluoro-4-trifluoromethyl-phenyl)-ethyl]-2-phenyl-acetamide hydrochloride]: the Kb turned out to be 0.0171 µM.
The result for `N[C@H](C(=O)N(CCc1ccc(F)cc1)c1ccc2c(c1)OCC2)c1ccccc1` [Example 243, (S)-2-Amino-N-(2,3-dihydro-benzofuran-6-yl)-N-[2-(4-fluoro-phenyl)-ethyl]-2-phenyl-acetamide hydrochloride] reads 0.0604 µM; that for `COc1ccc(N(CCc2ccc(C(F)(F)F)cc2)C(=O)C(N)c2ccc(F)cc2)cc1OC` (stereo not shown) [Example 61, 2-Amino-N-(3,4-dimethoxy-phenyl)-2-(4-fluoro-phenyl)-N-[2-(4-trifluoromethyl-phenyl)-ethyl]-acetamide], 0.0025 µM; that for `NC(C(=O)N(CCc1ccc(C(F)(F)F)cc1)c1cccc(OC(F)F)c1)c1ccccc1` (stereo not shown) [Example 107, 2-Amino-N-(3-difluoromethoxy-phenyl)-2-phenyl-N-[2-(4-trifluoromethyl-phenyl)-ethyl]-acetamide], 0.0509 µM.
The result for `Cc1ccc(N(CCc2ccccc2)C(=O)[C@@H](N)c2ccccc2)cc1C` [Example 199, (S)-2-Amino-N-(3,4-dimethyl-phenyl)-N-phenethyl-2-phenyl-acetamide hydrochloride] reads 0.0489 µM; that for `N[C@H](C(=O)N(CCc1ccc(F)cc1)c1ccc2c(c1)CCO2)c1ccccc1` [Example 239, (S)-2-Amino-N-(2,3-dihydro-benzofuran-5-yl)-N-[2-(4-fluoro-phenyl)-ethyl]-2-phenyl-acetamide hydrochloride], 0.025 µM; that for `C=COCCNC(C(=O)N(CCc1ccc(C)cc1)c1ccc(C)c(C)c1)c1ccccc1` (stereo not shown) [Example 135, N-(3,4-Dimethyl-phenyl)-2-phenyl-N-(2-p-tolyl-ethyl)-2-(2-vinyloxy-ethylamino)-acetamide], 0.0379 µM.
The result for `Cc1ccc(N(CCc2cccc(Cl)c2F)C(=O)[C@@H](N)c2ccccc2)cc1C` [Example 204, (S)-2-Amino-N-[2-(3-chloro-2-fluoro-phenyl)-ethyl]-N-(3,4-dimethyl-phenyl)-2-phenyl-acetamide hydrochloride] reads 0.0178 µM; that for `COc1cccc(N(CCc2ccc(C(F)(F)F)cc2)C(=O)C(N)c2ccccc2)c1` (stereo not shown) [Example 60, 2-Amino-N-(3-methoxy-phenyl)-2-phenyl-N-[2-(4-trifluoromethyl-phenyl)-ethyl]-acetamide], 0.0231 µM.
`Cc1ccc(N(CCc2cccc(F)c2F)C(=O)[C@@H](N)c2ccccc2)cc1C` [Example 191, (S)-2-Amino-N-[2-(2,3-difluoro-phenyl)-ethyl]-N-(3,4-dimethyl-phenyl)-2-phenyl-acetamide hydrochloride] displayed a Kb of 0.0215 µM.
The same measure for `Cc1ccc(N(CCc2ccc(F)c(C(F)(F)F)c2)C(=O)[C@@H](N)c2ccccc2)cc1C` [Example 187, (S)-2-Amino-N-(3,4-dimethyl-phenyl)-N-[2-(4-fluoro-3-trifluoromethyl-phenyl)-ethyl]-2-phenyl-acetamide hydrochloride]: 0.0327 µM; for `COc1ccc(N(CCc2ccc(C(F)(F)F)cc2)C(=O)C(N)c2ccccc2)cc1OC` (stereo not shown) [Example 45, 2-Amino-N-(3,4-dimethoxy-phenyl)-2-phenyl-N-[2-(4-trifluoromethyl-phenyl)-ethyl]-acetamide]: 0.0018 µM.
